Results as given in publication PMC10814857, “Functional Classification and Interaction Selectivity Landscape of the Human SH3 Domain Superfamily” (Cells, 2024).
pKd: −log10 of the molar value. Where “and” joins values, the source holds several entries; their conditions need not be identical. Equal values may be shown once. Peptide text beside a SMILES is read from it.

Tests used:
Assay in all cases: Fluorescence polarization SH3 domain-PRP binding
Conditions in all cases: FP, 0.2 µM fluorescein-labeled peptide, SH3 domain 0-200 µM, Tris/HCl pH 7.5, 25 °C, quadratic fit
[1] = target: T1, ABL2 SH3 domain (aa 107-167) (Homo sapiens, UniProt P42684)
T1 construct: 107-167; GST (N); made in house; host or cells: Escherichia coli CodonPlus, Rosetta, BL21(DE3)
T1 sequence (P42684 107-167): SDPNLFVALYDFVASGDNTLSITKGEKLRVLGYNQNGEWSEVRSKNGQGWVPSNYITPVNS
Method: (§1) The interaction between fluorescein-labeled proline-rich peptides (0.2 µM) and increasing concentrations of SH3 domains (ranging from 0 to 200 µM) was measured in a buffer (containing 30 mM Tris/HCl (pH 7.5), 5 mM MgCl2, and 3 mM DTT at 25 °C) in a total volume of 200 µL using a Fluoromax 4 fluorimeter in polarization mode and a quartz glass fluorescence cuvette (Hellma Ultra-Micro Cuvette 105.250-QS, Thermo Fisher Scientific, Waltham, MA USA). Excitation was performed at 470 nm and emission was measured at 560 nm. Dissociation constants (Kd) were determined by fitting the concentration-dependent binding curve to a quadratic ligand binding equation.
(§2) Fluorescence polarization measurements were performed to determine the binding affinities of SH3 domain–PRP interaction pairs from the dot blot analysis. SH3 proteins were titrated at increasing concentrations against fluorescent PRPs, which were kept at a constant concentration of 0.2 µM. GRB2-2^W193K, which is defective in the binding of PRPs such as RP1, was used as a negative control as previously described. […] The resulting data (Figure S6) allowed the evaluation of equilibrium dissociation constants (Kd) for 45 interactions between the SH3 domains and the PRPs (Figure 2B; Table S6).
(§3) Figure S6. Interactions of the SH3 domains with fluorescent PRPs measured by fluorescence polarization.
(§4) Fluorescent peptides (0.2 µM) were titrated with increasing concentrations of the corresponding SH3 domains.
(§5) GRB2-2W193K, defective in the binding of PRPs such as RP1, was used as a negative control as previously described. The x-axis represents SH3 domain concentrations as GST fusion proteins in µM, while the y-axis represents fluorescence polarization. The equilibrium dissociation constants (Kd) for the respective measurements were determined by fitting the titration curves to a quadratic ligand-binding equation (solid lines). All Kd values are […]
(§6) Error bars are derived from the fitting errors.
(§7) (1 picture or pasted object on this page, not shown here)

[2] = target: T2, GRB2-2 SH3 domain (aa 158-215) (Homo sapiens, UniProt P62993)
T2 construct: 158-215; GST (N); made in house; host or cells: Escherichia coli CodonPlus, Rosetta, BL21(DE3)
T2 sequence (P62993 158-215): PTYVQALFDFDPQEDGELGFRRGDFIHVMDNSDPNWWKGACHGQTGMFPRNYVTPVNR
Method: as §1, §2, §3, §4, §5, §6, §7

[3] = target: T3, ARHGEF30 (OBSCN) SH3 domain (aa 5600-5667) (Homo sapiens, UniProt Q5VST9)
T3 construct: 5600-5667; GST (N); made in house; host or cells: Escherichia coli CodonPlus, Rosetta, BL21(DE3)
T3 sequence (Q5VST9 5600-5667): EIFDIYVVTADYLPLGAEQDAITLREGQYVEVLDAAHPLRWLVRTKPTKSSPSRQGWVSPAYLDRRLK
Method: as §1, §2, §3, §4, §5, §6, §7

[4] = target: T4, ABI1 SH3 domain (aa 446-505) (Homo sapiens, UniProt Q8IZP0)
T4 construct: 446-505; GST (N); made in house; host or cells: Escherichia coli CodonPlus, Rosetta, BL21(DE3)
T4 sequence (Q8IZP0 446-505): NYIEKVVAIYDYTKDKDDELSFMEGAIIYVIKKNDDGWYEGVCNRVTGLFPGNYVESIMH
Method: as §1, §2, §3, §4, §5, §6, §7

[5] = target: T5, DLG2 SH3 domain (aa 536-606) (Homo sapiens, UniProt Q15700)
T5 construct: 536-606; GST (N); made in house; host or cells: Escherichia coli CodonPlus, Rosetta, BL21(DE3)
T5 sequence (Q15700 536-606): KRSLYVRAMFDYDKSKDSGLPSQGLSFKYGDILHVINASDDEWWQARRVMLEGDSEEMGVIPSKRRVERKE
Method: as §1, §2, §3, §4, §5, §6, §7

[6] = target: T6, CRK-1 SH3 domain (aa 132-192) (Homo sapiens, UniProt P46108)
T6 construct: 132-192; GST (N); made in house; host or cells: Escherichia coli CodonPlus, Rosetta, BL21(DE3)
T6 sequence (P46108 132-192): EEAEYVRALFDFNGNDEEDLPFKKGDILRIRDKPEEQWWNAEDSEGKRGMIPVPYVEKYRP
Method: as §1, §2, §3, §4, §5, §6, §7

[7] = target: T7, ITSN1-1 SH3 domain (aa 740-806) (Homo sapiens, UniProt Q15811)
T7 construct: 740-806; GST (N); made in house; host or cells: Escherichia coli CodonPlus, Rosetta, BL21(DE3)
T7 sequence (Q15811 740-806): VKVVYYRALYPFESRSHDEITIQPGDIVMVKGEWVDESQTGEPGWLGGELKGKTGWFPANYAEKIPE
Method: as §1, §2, §3, §4, §5, §6, §7

[8] = target: T8, ITSN1-2 SH3 domain (aa 913-971) (Homo sapiens, UniProt Q15811)
T8 construct: 913-971; GST (N); made in house; host or cells: Escherichia coli CodonPlus, Rosetta, BL21(DE3)
T8 sequence (Q15811 913-971): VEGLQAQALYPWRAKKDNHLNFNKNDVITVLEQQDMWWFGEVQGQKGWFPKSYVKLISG
Method: as §1, §2, §3, §4, §5, §6, §7

[9] = target: T9, ITSN1-3 SH3 domain (aa 1002-1060) (Homo sapiens, UniProt Q15811)
T9 construct: 1002-1060; GST (N); made in house; host or cells: Escherichia coli CodonPlus, Rosetta, BL21(DE3)
T9 sequence (Q15811 1002-1060): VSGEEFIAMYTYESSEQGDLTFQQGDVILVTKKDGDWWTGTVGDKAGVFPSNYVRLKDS
Method: as §1, §2, §3, §4, §5, §6, §7

[10] = target: T10, GRB2-1 SH3 domain (aa 1-58) (Homo sapiens, UniProt P62993)
T10 construct: 1-58; GST (N); made in house; host or cells: Escherichia coli CodonPlus, Rosetta, BL21(DE3)
T10 sequence (P62993 1-58): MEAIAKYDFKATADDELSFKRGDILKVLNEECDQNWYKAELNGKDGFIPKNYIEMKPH
Method: as §1, §2, §3, §4, §5, §6, §7

[11] = target: T11, ARHGAP12 SH3 domain (aa 12-74) (Homo sapiens, UniProt Q8IWW6)
T11 construct: 12-74; GST (N); made in house; host or cells: Escherichia coli CodonPlus, Rosetta, BL21(DE3)
T11 sequence (Q8IWW6 12-74): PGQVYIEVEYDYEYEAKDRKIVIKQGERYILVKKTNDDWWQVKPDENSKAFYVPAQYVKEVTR
Method: as §1, §2, §3, §4, §5, §6, §7

[12] = target: T12, BIN1 SH3 domain (aa 520-593) (Homo sapiens, UniProt O00499)
T12 construct: 520-593; GST (N); made in house; host or cells: Escherichia coli CodonPlus, Rosetta, BL21(DE3)
T12 sequence (O00499 520-593): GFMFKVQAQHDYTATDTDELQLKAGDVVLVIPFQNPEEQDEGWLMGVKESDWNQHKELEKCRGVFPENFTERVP
Method: as §1, §2, §3, §4, §5, §6, §7

pKd [1] | pKd [2] | pKd [3] | pKd [4] | pKd [5] | pKd [6] | pKd [7] | pKd [8] | pKd [9] | pKd [10] | pKd [11] | pKd [12] | SMILES
< 3.70 | < 3.70 | < 3.70 | < 3.70 | < 3.70 | < 3.70 | < 3.70 | < 3.70 | < 3.70 | < 3.70 | < 3.70 | < 3.70 | CC(C)C[C@H](NC(=O)[C@H](Cc1c[nH]cn1)NC(=O)[C@H](CC(C)C)NC(=O)[C@@H]1CCCN1C(=O)[C@H](CO)NC(=O)[C@H](CO)NC(=O)[C@@H](N)CO)C(=O)N[C@@H](CCC(N)=O)C(=O)N1CCC[C@H]1C(=O)N1CCC[C@H]1C(=O)N1CCC[C@H]1C(=O)N[C@@H](CC(C)C)C(=O)NCC(=O)N[C@@H](CCCCN)C(=O)N[C@@H](CCCCN)C(=O)O [Peptide P6] (H-SSSPLHLQPPPLGKK-OH; N-terminus and C-terminus assumed)
< 3.70 | 4.89 | < 3.70 | < 3.70 | < 3.70 | < 3.70 | 4.96 | < 3.70 | < 3.70 | 4.70 | 4.81 | 4.32 | CC(C)[C@H](NC(=O)[C@@H]1CCCN1C(=O)[C@@H]1CCCN1C(=O)[C@H](C)NC(=O)[C@H](CCC(=O)O)NC(=O)[C@H](CS)NC(=O)[C@@H](N)CCCNC(=N)N)C(=O)N1CCC[C@H]1C(=O)N1CCC[C@H]1C(=O)N[C@@H](CCCNC(=N)N)C(=O)N[C@@H](CCCNC(=N)N)C(=O)N[C@@H](CCC(=O)O)C(=O)N[C@@H](CCCNC(=N)N)C(=O)NCC(=O)O [RP2, reference compound] (H-RCEAPPVPPRRERG-OH)
< 3.70 | < 3.70 | < 3.70 | < 3.70 | < 3.70 | < 3.70 | < 3.70 | < 3.70 | < 3.70 | < 3.70 | < 3.70 | < 3.70 | CC(C)C[C@H](NC(=O)[C@@H]1CCCN1C(=O)[C@@H](NC(=O)[C@H](CCCNC(=N)N)NC(=O)[C@@H]1CCCN1C(=O)[C@H](CO)NC(=O)[C@H](CC(N)=O)NC(=O)[C@@H]1CCCN1C(=O)[C@H](C)NC(=O)[C@@H](N)CO)[C@@H](C)O)C(=O)N[C@H](C(=O)N1CCC[C@H]1C(=O)N1CCC[C@H]1C(=O)N1CCC[C@H]1C(=O)N[C@@H](C)C(=O)N[C@@H](CO)C(=O)O)[C@@H](C)O [Peptide P1] (H-SAPNSPRTPLTPPPAS-OH)
4.17 | < 3.70 | 5.05 | < 3.70 | 4.23 | 4.74 | < 3.70 | < 3.70 | < 3.70 | < 3.70 | 6.70 and > 6.30 | 4.92 | C[C@H](N)C(=O)N[C@@H](Cc1ccccc1)C(=O)N[C@@H](Cc1ccccc1)C(=O)N1CCC[C@H]1C(=O)N[C@@H](CC(N)=O)C(=O)N[C@@H](CO)C(=O)N1CCC[C@H]1C(=O)N[C@@H](CO)C(=O)N1CCC[C@H]1C(=O)N[C@@H](Cc1ccccc1)C(=O)N[C@H](C(=O)N1CCC[C@H]1C(=O)N1CCC[C@H]1C(=O)N1CCC[C@H]1C(=O)N1CCC[C@H]1C(=O)N[C@@H](CCC(N)=O)C(=O)N[C@H](C(=O)N1CCC[C@H]1C(=O)N[C@@H](CO)C(=O)N1CCC[C@H]1C(=O)N[C@@H](Cc1c[nH]cn1)C(=O)NCC(=O)N[C@H](C(=O)O)[C@@H](C)O)[C@@H](C)O)[C@@H](C)O [Peptide P7] (H-AFFPNSPSPFTPPPPQTPSPHGT-OH)
< 3.70 | < 3.70 | < 3.70 | < 3.70 | < 3.70 | < 3.70 | < 3.70 | < 3.70 | < 3.70 | < 3.70 | < 3.70 | < 3.70 | CC(C)C[C@H](NC(=O)[C@@H]1CCCN1C(=O)[C@@H]1CCCN1C(=O)[C@H](CO)NC(=O)[C@@H]1CCCN1C(=O)[C@H](CC(C)C)NC(=O)[C@H](Cc1c[nH]cn1)NC(=O)[C@@H](N)CCCNC(=N)N)C(=O)N[C@H](C(=O)N[C@@H](CCC(N)=O)C(=O)O)[C@@H](C)O [Peptide P8] (H-RHLPSPPLTQ-OH; N-terminus and C-terminus assumed)
